Measured values published in the supplement of paper PMC10307832.

Experiments:
Experiment in all cases: relative viability (nuclei count vs DMSO), 5 days (fraction); higher = more cells survive
[1] = system: NCI-H1734
In short: (§1)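 Each reported value is a median over duplicate plates. It expresses relative viability: treated-well nuclei count divided by vehicle-well nuclei count. Lung cancer cell lines in 1536-well plates were dosed by pin tool a day after seeding, alone with one drug or with a fixed anchor-drug dose plus five library-drug doses (not always all listed) in √10 steps, and nuclei were counted after 5 days.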

[2] = system: 201T
In short: as §1

[3] = system: NCI-H1651
In short: as §1

[4] = system: NCI-H2126
In short: as §1

[5] = system: PC-14
In short: as §1

[6] = system: NCI-H441
In short: as §1

[7] = system: NCI-H596
In short: as §1

[8] = system: HOP-62
In short: as §1

[9] = system: NCI-H322M
In short: as §1

[10] = system: ABC-1
In short: as §1

[11] = system: NCI-H1755
In short: as §1

[12] = system: NCI-H2170
In short: as §1

[13] = system: NCI-H2087
In short: as §1

[14] = system: ChaGo-K-1
In short: as §1

[15] = system: EMC-BAC-2
In short: as §1

[16] = system: CAL-12T
In short: as §1

[17] = system: LXF-289
In short: as §1

[18] = system: H3255
In short: as §1

[19] = system: LK-2
In short: as §1

[20] = system: NCI-H647
In short: as §1

[21] = system: NCI-H3122
In short: as §1

O=C(O)CCCCC(CCSCc1ccccc1)SCc1ccccc1 (stereo unspecified) [CPI-613] + NC(=O)Nc1cc(-c2cccc(F)c2)sc1C(=O)N[C@H]1CCCNC1 [AZD7762] (partner 0.2 µM)
relative viability ([1]; first compound 5 µM): 0.505 | relative viability ([1]; first compound 15.81 µM): 0.482 | relative viability ([1]; first compound 50 µM): 0.413 | relative viability ([1]; first compound 158.11 µM): 0.272 | relative viability ([1]; first compound 500 µM): 0.0982 | relative viability ([2]; first compound 5 µM): 0.581 | relative viability ([2]; first compound 15.81 µM): 0.62 | relative viability ([2]; first compound 50 µM): 0.66 | relative viability ([2]; first compound 158.11 µM): 0.318 | relative viability ([2]; first compound 500 µM): 0.564 | relative viability ([3]; first compound 5 µM): 0.484 | relative viability ([3]; first compound 15.81 µM): 0.421 | relative viability ([3]; first compound 50 µM): 0.421 | relative viability ([3]; first compound 158.11 µM): 0.317 | relative viability ([3]; first compound 500 µM): 0.45 | relative viability ([4]; first compound 5 µM): 0.935 | relative viability ([4]; first compound 15.81 µM): 0.966 | relative viability ([4]; first compound 50 µM): 0.991 | relative viability ([4]; first compound 158.11 µM): 0.348 | relative viability ([4]; first compound 500 µM): 0.788 | relative viability ([5]; first compound 5 µM): 0.349 | relative viability ([5]; first compound 15.81 µM): 0.252 | relative viability ([5]; first compound 50 µM): 0.296 | relative viability ([5]; first compound 158.11 µM): 0.256 | relative viability ([5]; first compound 500 µM): 0.16 | relative viability ([6]; first compound 5 µM): 1.09 | relative viability ([6]; first compound 15.81 µM): 0.803 | relative viability ([6]; first compound 50 µM): 1.39 | relative viability ([6]; first compound 158.11 µM): 0.788 | relative viability ([6]; first compound 500 µM): 0.0052 | relative viability ([7]; first compound 5 µM): 1.16 | relative viability ([7]; first compound 15.81 µM): 0.939 | relative viability ([7]; first compound 50 µM): 1.11 | relative viability ([7]; first compound 158.11 µM): 0.818 | relative viability ([7]; first compound 500 µM): 0.0374 | relative viability ([8]; first compound 5 µM): 0.703 | relative viability ([8]; first compound 15.81 µM): 0.398 | relative viability ([8]; first compound 50 µM): 0.649 | relative viability ([8]; first compound 158.11 µM): 0.235 | relative viability ([8]; first compound 500 µM): 0.216 | relative viability ([9]; first compound 5 µM): 0.547 | relative viability ([9]; first compound 15.81 µM): 0.508 | relative viability ([9]; first compound 50 µM): 0.606 | relative viability ([9]; first compound 158.11 µM): 0.638 | relative viability ([9]; first compound 500 µM): 0.269 | relative viability ([10]; first compound 5 µM): 1.18 | relative viability ([10]; first compound 15.81 µM): 0.696 | relative viability ([10]; first compound 158.11 µM): 0.471 | relative viability ([10]; first compound 500 µM): 0.71 | relative viability ([11]; first compound 5 µM): 0.383 | relative viability ([11]; first compound 15.81 µM): 0.4 | relative viability ([11]; first compound 50 µM): 0.319 | relative viability ([11]; first compound 158.11 µM): 0.397 | relative viability ([11]; first compound 500 µM): 0.375 | relative viability ([12]; first compound 5 µM): 0.878 | relative viability ([12]; first compound 15.81 µM): 0.826 | relative viability ([12]; first compound 50 µM): 0.865 | relative viability ([12]; first compound 158.11 µM): 0.607 | relative viability ([12]; first compound 500 µM): 0.231 | relative viability ([13]; first compound 5 µM): 1.4 | relative viability ([13]; first compound 15.81 µM): 0.87 | relative viability ([13]; first compound 50 µM): 1.16 | relative viability ([13]; first compound 158.11 µM): 0.446 | relative viability ([13]; first compound 500 µM): 0.01 | relative viability ([14]; first compound 5 µM): 0.827 | relative viability ([14]; first compound 15.81 µM): 0.778 | relative viability ([14]; first compound 50 µM): 0.85 | relative viability ([14]; first compound 158.11 µM): 0.536 | relative viability ([14]; first compound 500 µM): 0.436 | relative viability ([15]; first compound 5 µM): 1.1 | relative viability ([15]; first compound 15.81 µM): 1.05 | relative viability ([15]; first compound 50 µM): 1.14 | relative viability ([15]; first compound 158.11 µM): 0.902 | relative viability ([15]; first compound 500 µM): 0.529 | relative viability ([16]; first compound 5 µM): 0.624 | relative viability ([16]; first compound 15.81 µM): 0.457 | relative viability ([16]; first compound 50 µM): 0.509 | relative viability ([16]; first compound 158.11 µM): 0.541 | relative viability ([16]; first compound 500 µM): 0.469 | relative viability ([17]; first compound 5 µM): 1 | relative viability ([17]; first compound 15.81 µM): 1 | relative viability ([17]; first compound 50 µM): 1.03 | relative viability ([17]; first compound 158.11 µM): 0.722 | relative viability ([17]; first compound 500 µM): 0.774 | relative viability ([18]; first compound 5 µM): 0.816 | relative viability ([18]; first compound 15.81 µM): 0.847 | relative viability ([18]; first compound 50 µM): 0.833 | relative viability ([18]; first compound 158.11 µM): 0.733 | relative viability ([18]; first compound 500 µM): 0.853 | relative viability ([19]; first compound 5 µM): 0.408 | relative viability ([19]; first compound 15.81 µM): 0.359 | relative viability ([19]; first compound 50 µM): 0.343 | relative viability ([19]; first compound 158.11 µM): 0.355 | relative viability ([19]; first compound 500 µM): 0.289 | relative viability ([20]; first compound 5 µM): 0.502 | relative viability ([20]; first compound 15.81 µM): 0.32 | relative viability ([20]; first compound 50 µM): 0.406 | relative viability ([20]; first compound 158.11 µM): 0.282 | relative viability ([20]; first compound 500 µM): 0.343 | relative viability ([21]; first compound 5 µM): 0.989 | relative viability ([21]; first compound 15.81 µM): 0.977 | relative viability ([21]; first compound 50 µM): 1.01 | relative viability ([21]; first compound 158.11 µM): 0.973 | relative viability ([21]; first compound 500 µM): 0.842

Cc1cnc(-c2cnc(NCCNc3ccc(C#N)cn3)nc2-c2ccc(Cl)cc2Cl)[nH]1 + NC(=O)Nc1cc(-c2cccc(F)c2)sc1C(=O)N[C@H]1CCCNC1 [AZD7762] (partner 0.2 µM)
relative viability ([1]; first compound 0.08 µM): 0.513 | relative viability ([1]; first compound 0.253 µM): 0.522 | relative viability ([1]; first compound 0.8 µM): 0.543 | relative viability ([1]; first compound 2.53 µM): 0.459 | relative viability ([2]; first compound 0.08 µM): 0.702 | relative viability ([2]; first compound 0.8 µM): 0.567 | relative viability ([2]; first compound 2.53 µM): 0.619 | relative viability ([3]; first compound 0.08 µM): 0.506 | relative viability ([3]; first compound 0.253 µM): 0.406 | relative viability ([3]; first compound 0.8 µM): 0.454 | relative viability ([3]; first compound 2.53 µM): 0.459 | relative viability ([4]; first compound 0.08 µM): 1.03 | relative viability ([4]; first compound 0.253 µM): 0.939 | relative viability ([4]; first compound 0.8 µM): 0.984 | relative viability ([4]; first compound 2.53 µM): 1.02 | relative viability ([5]; first compound 0.08 µM): 0.347 | relative viability ([5]; first compound 0.253 µM): 0.316 | relative viability ([5]; first compound 0.8 µM): 0.365 | relative viability ([5]; first compound 2.53 µM): 0.392 | relative viability ([6]; first compound 0.08 µM): 1.02 | relative viability ([6]; first compound 0.8 µM): 0.967 | relative viability ([6]; first compound 2.53 µM): 0.993 | relative viability ([7]; first compound 0.08 µM): 1.3 | relative viability ([7]; first compound 0.253 µM): 0.974 | relative viability ([7]; first compound 0.8 µM): 1.09 | relative viability ([7]; first compound 2.53 µM): 1.01 | relative viability ([8]; first compound 0.08 µM): 0.817 | relative viability ([8]; first compound 0.253 µM): 0.383 | relative viability ([8]; first compound 0.8 µM): 0.45 | relative viability ([8]; first compound 2.53 µM): 0.748 | relative viability ([9]; first compound 0.08 µM): 0.526 | relative viability ([9]; first compound 0.253 µM): 0.546 | relative viability ([9]; first compound 0.8 µM): 0.566 | relative viability ([9]; first compound 2.53 µM): 0.675 | relative viability ([10]; first compound 0.253 µM): 0.772 | relative viability ([10]; first compound 0.8 µM): 0.771 | relative viability ([10]; first compound 2.53 µM): 0.862 | relative viability ([11]; first compound 0.08 µM): 0.459 | relative viability ([11]; first compound 0.253 µM): 0.445 | relative viability ([11]; first compound 0.8 µM): 0.404 | relative viability ([11]; first compound 2.53 µM): 0.443 | relative viability ([12]; first compound 0.08 µM): 1.01 | relative viability ([12]; first compound 0.8 µM): 0.774 | relative viability ([12]; first compound 2.53 µM): 0.695 | relative viability ([13]; first compound 0.08 µM): 1.3 | relative viability ([13]; first compound 0.8 µM): 1.3 | relative viability ([13]; first compound 2.53 µM): 1.17 | relative viability ([14]; first compound 0.08 µM): 0.843 | relative viability ([14]; first compound 0.253 µM): 0.754 | relative viability ([14]; first compound 0.8 µM): 0.82 | relative viability ([14]; first compound 2.53 µM): 0.814 | relative viability ([15]; first compound 0.08 µM): 1.24 | relative viability ([15]; first compound 0.253 µM): 1.21 | relative viability ([15]; first compound 0.8 µM): 1.04 | relative viability ([15]; first compound 2.53 µM): 1.01 | relative viability ([16]; first compound 0.08 µM): 0.586 | relative viability ([16]; first compound 0.253 µM): 0.567 | relative viability ([16]; first compound 0.8 µM): 0.544 | relative viability ([16]; first compound 2.53 µM): 0.693 | relative viability ([17]; first compound 0.08 µM): 1.16 | relative viability ([17]; first compound 0.253 µM): 1.05 | relative viability ([17]; first compound 0.8 µM): 1.18 | relative viability ([17]; first compound 2.53 µM): 1.19 | relative viability ([18]; first compound 0.08 µM): 0.996 | relative viability ([18]; first compound 0.253 µM): 0.887 | relative viability ([18]; first compound 0.8 µM): 0.879 | relative viability ([18]; first compound 2.53 µM): 0.888 | relative viability ([19]; first compound 0.08 µM): 0.436 | relative viability ([19]; first compound 0.253 µM): 0.421 | relative viability ([19]; first compound 2.53 µM): 0.393 | relative viability ([20]; first compound 0.08 µM): 0.439 | relative viability ([20]; first compound 0.253 µM): 0.341 | relative viability ([20]; first compound 0.8 µM): 0.405 | relative viability ([20]; first compound 2.53 µM): 0.364 | relative viability ([21]; first compound 0.08 µM): 0.995 | relative viability ([21]; first compound 0.8 µM): 1.03 | relative viability ([21]; first compound 2.53 µM): 0.98
